Experiment [1] concerns the target PKR (wild type) (Homo sapiens, UniProt P30613). Briefly: Luminescence Assay (Kinase Glo Plus), PKR wild type. In kind it is biochemical. The procedure:
(§1) The ability of compound 1 to activate PKR was determined using the following Luminescence Assay. The effect of phosphorylation of adenosine-5′-diphosphate (ADP) by PKR (wild type) is determined by the Kinase Glo Plus Assay (Promega) in the presence or absence of FBP [D-Fructose-1,6-diphosphate; BOC Sciences, CAS: 81028-91-3] as follows. Unless otherwise indicated, all reagents are purchased from Sigma-Aldrich. All reagents are prepared in buffer containing 50 mM Tris-HC1, 100 mM KC1, 5 mM MgC12, and 0.01% Triton X100, 0.03% BSA, and 1 mM DTT. Enzyme and PEP [Phospho(enol) pyruvic acid] are added at 2× to all wells of an assay-ready plate containing serial dilutions of test compounds or DMSO vehicle. Final enzyme concentrations for PKR(wt), PKR(R510Q), and PKR(G332S) are 0.8 nM, 0.8 nM, and 10 nM respectively. Final PEP concentration is 100 μM. The Enzyme/PEP mixture is incubated with compounds for 30 minutes at RT before the assay is initiated with the addition of 2×ADP [Adenosine-5′-diphosphate] and KinaseGloPlus. Final concentration of ADP is 100 μM. […] For assays containing FBP, that reagent is added at 30 μM upon reaction initiation. Reactions are allowed to progress for 45 minutes at RT until luminescence is recorded by the BMG PHERAstar FS Multilabel Reader. The compound is tested in triplicate at concentrations ranging from 42.5 μM to 2.2 nM in 0.83% DMSO. […]
A general note: In Kinase-Glo more light means more ATP remaining.

For experiment [2], the target named is PKR(G332S) (Homo sapiens, UniProt P30613, G332S). Briefly: Luminescence Assay (Kinase Glo Plus), G332S PKR mutant. Particulars: G332S PKR mutant 10 nM; PEP 100 μM; ADP 100 μM; four parameter fit; triplicate. It is filed as biochemical. As to the method:
as §1

Bounds are passed on as bounds.

PKR (wild type), sequence (P30613 whole entry): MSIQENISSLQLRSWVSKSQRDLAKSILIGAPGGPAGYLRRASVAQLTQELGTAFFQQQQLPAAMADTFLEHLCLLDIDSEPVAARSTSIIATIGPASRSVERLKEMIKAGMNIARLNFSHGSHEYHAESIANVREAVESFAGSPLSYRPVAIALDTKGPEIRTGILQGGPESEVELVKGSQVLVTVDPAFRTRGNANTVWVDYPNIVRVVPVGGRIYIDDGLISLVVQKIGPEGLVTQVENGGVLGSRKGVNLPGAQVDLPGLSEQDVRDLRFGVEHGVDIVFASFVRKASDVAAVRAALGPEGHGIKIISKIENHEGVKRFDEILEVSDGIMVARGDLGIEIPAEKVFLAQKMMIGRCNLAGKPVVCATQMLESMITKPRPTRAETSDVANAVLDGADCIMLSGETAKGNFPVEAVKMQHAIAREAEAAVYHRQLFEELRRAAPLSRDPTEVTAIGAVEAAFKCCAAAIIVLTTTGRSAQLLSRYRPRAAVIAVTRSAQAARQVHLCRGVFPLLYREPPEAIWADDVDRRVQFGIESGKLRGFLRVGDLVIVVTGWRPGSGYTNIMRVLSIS
PKR(G332S), sequence (P30613 whole entry G332S): as the sequence (P30613 whole entry) above, with G332S counted along it

By AC50 is commonly meant the midpoint of the concentration-response curve, whichever way the signal moves. Regarding `CC(C)(O)C(=O)N1CC2=C(C1)CN(S(=O)(=O)c1ccc3c(c1)NCCO3)C2` [compound 1, 1-(5-((3,4-Dihydro-2H-benzo[b][1,4]oxazin-6-yl)sulfonyl)-3,4,5,6-tetrahydropyrrolo[3,4-c]pyrrol-2(1H)-yl)-2-hydroxy-2-methylpropan-1-one], the AC50 is under 1 µM in experiment [1] (Luminescence Assay, PKR form not specified, definition of PKR Activator Compound); 0.1 to 1 µM in experiment [1] (PKR wild type enzyme 0.8 nM, PEP 100 μM, ADP 100 μM, four parameter fit, triplicate); 0.1 to 1 µM in experiment [2].
